Structures can show the parent of a compound that is named as a salt.
Legend:
PC-3 (prostate cancer) = experiment: Chou and Talalay combination assay with beta-caryophyllene; type: cell-based, human; conditions: anticancer drug in combination with beta-caryophyllene; Chou and Talalay CI; 48 h
Procedure: (§1) Each solution was prepared fresh and use within 1 hour after preparation.
(§2) Cells were then harvested using trypsine-EDTA. Cells were counted using a hemocytometer and resuspended in DMEM+10% FBS medium.
(§3) Proliferation assay: Increasing concentrations of the anticancer agents and/or beta-caryophyllene were added to 96-well plate (100 μL per well). The final concentration of solvent in the culture medium was maintained below 0.5% (volume/volume) to avoid solvent toxicity.
(§4) The cells were incubated for 48 h at 37° C. and 5% CO2. Cytotoxicity was assessed using the resazurin reduction test (O'Brien et al., 2000). Fluorescence was measured on an automated 96-well Fluoroskan Ascent FI™ plate reader (Labsystems) using excitation and emission wavelengths of 530 nm and 590 nm, respectively. Resazurin was then removed.
(§5) Microplates were frozen at −20° C. overnight. Plates were thawed, a volume of 100 μl of 0.01% SDS in water was added to the wells, the plates were shaken at room temperature for 3 hours and then frozen once more at −20° C. overnight. […] Plates were shaken in the dark (at room temperature) for at least 2 hours, and fluorescence was measured on an automated 96-well Fluoroskan Ascent FI™ plate reader (Labsystems) using excitation and emission wavelengths of 360 nm and 460 nm, respectively.

MEL-2 (human melanoma) = experiment: as above; type: cell-based; conditions: anticancer drug in combination with beta-caryophyllene; Chou and Talalay CI; 48 h
Procedure: as §1, §2, §3, §4, §5
(§6) Results were analyzed using the Chou and Talalay method (9) and may be interpreted as follow: Cl>1 represents an antagonist effect of beta-caryophyllene with the corresponding anticancer agent; Cl=1 represents an additive effect of beta-caryophyllene with the corresponding anticancer agent; Cl<1 represents a potentiating effect of beta-caryophyllene with the corresponding anticancer agent.

B16 (murine melanoma) = experiment: as above; type: cell-based; conditions: anticancer drug in combination with beta-caryophyllene; Chou and Talalay CI; 48 h
Procedure: as §1, §2, §3, §4, §5, §6

[1] = system: GL-261 (murine glioblastoma); experiment: as above; type: cell-based; conditions: anticancer drug in combination with beta-caryophyllene; Chou and Talalay CI; 48 h
Procedure: as §1, §2, §3, §4, §5, §6

[2] = system: U-251 (human glioblastoma); experiment: as above; type: cell-based; conditions: anticancer drug in combination with beta-caryophyllene; Chou and Talalay CI; 48 h
Procedure: as §1, §2, §3, §4, §5, §6

[3] = system: MDA-MB-231 (breast cancer); experiment: as above; type: cell-based, human; conditions: anticancer drug in combination with beta-caryophyllene; Chou and Talalay CI; 48 h
Procedure: as §1, §2, §3, §4, §5, §6

MCF-7 (breast cancer) = experiment: as above; type: cell-based, human; conditions: anticancer drug in combination with beta-caryophyllene; Chou and Talalay CI; 48 h
Procedure: as §1, §2, §3, §4, §5, §6

A-549 (lung cancer) = experiment: as above; type: cell-based, human; conditions: anticancer drug in combination with beta-caryophyllene; Chou and Talalay CI; 48 h
Procedure: as §1, §2, §3, §4, §5, §6

PA-1 (ovary cancer) = experiment: as above; type: cell-based, human; conditions: anticancer drug in combination with beta-caryophyllene; Chou and Talalay CI; 48 h
Procedure: as §1, §2, §3, §4, §5, §6

DLD-1 (colon cancer) = experiment: as above; type: cell-based, human; conditions: anticancer drug in combination with beta-caryophyllene; Chou and Talalay CI; 48 h
Procedure: as §1, §2, §3, §4, §5, §6

MCF-7 = experiment: Cytotoxicity of alpha-humulene and isocaryophyllene alone or combined with beta-caryophyllene; type: cell-based, human
Procedure: Combinations of beta-caryophyllene and two other antitumor agents, isocaryophyllene and α-humulene, were also tested as described above with some adaptations. 5×10^3 cells per well were allowed to adhere for 16 hours before treatment. The final concentration of solvent in the culture medium was maintained at 0.5% (volume/volume) to avoid toxicity. These combinations were tested on MCF-7.

[4] = combined with 10 μg/ml of beta-caryophyllene

Compound	Potentiating activity PC-3 (PC-3 (prostate cancer))	Potentiating activity MEL-2 (MEL-2 (human melanoma))	Potentiating activity B16 (B16 (murine melanoma))	Potentiating activity GL-261 [1]	Potentiating activity U-251 [2]	Potentiating activity MDA [3]	Potentiating activity MCF-7 (MCF-7 (breast cancer))	Potentiating activity A-549 (A-549 (lung cancer))	Potentiating activity PA-1 (PA-1 (ovary cancer))	Potentiating activity DLD-1 (DLD-1 (colon cancer))	IC50 (MCF-7; [4]) [µg/mL]	IC50 (MCF-7; used alone) [µg/mL]
COc1cc([C@@H]2c3cc4c(cc3[C@@H](O[C@@H]3O[C@@H]5CO[C@@H](C)O[C@H]5[C@H](O)[C@H]3O)[C@H]3COC(=O)[C@H]23)OCO4)cc(OC)c1O [Etoposide, etoposide]	(6) (Antagonist effect: CI > 1)	(3) (Moderate: 0.5 < CI < 0.8 to IC50)	(3) (Moderate: 0.5 < CI < 0.8 to IC50)	(2) (High: CI < 0.5 to IC50)	(3) (Moderate: 0.5 < CI < 0.8 to IC50)	(1) (Very High: CI equal or below 1 at IC20 and Cl below 0.6 to IC50)	(1) (Very High: CI equal or below 1 at IC20 and Cl below 0.6 to IC50)	(4) (Weak: 0.8 < CI < 1 at IC50)	(1) (Very High: potentiating or additive activity to IC20 and CI < 0.6 to IC50)	(3) (Moderate: 0.5 < CI < 0.8 at IC50)		
CN(Cc1cnc2nc(N)nc(N)c2n1)c1ccc(C(=O)N[C@@H](CCC(=O)O)C(=O)O)cc1 [Methotrexate]	(6) (Antagonist effect: CI > 1)	(1) (Very High: potentiating or additive activity to IC20 and CI < 0.6 to IC50)	(6) (Antagonist effect: CI > 1)	(6) (Antagonist effect: CI > 1)	(2) (High: CI < 0.5 to IC50)	(6) (Antagonist effect: CI > 1)	(2) (High: CI below 0.5 at IC50)	(4) (Weak: 0.8 < CI < 1 at IC50)	(1) (Very High: potentiating or additive activity to IC20 and CI < 0.6 to IC50)	(4) (Weak: 0.8 < CI < 1 at IC50)		
O=C1c2c(O)ccc(O)c2C(=O)c2c(NCCNCCO)ccc(NCCNCCO)c21 [Mitoxantrone]	(5) (Additive effect: CI = 1)	(3) (Moderate: 0.5 < CI < 0.8 to IC50)	(3) (Moderate: 0.5 < CI < 0.8 to IC50)	(1) (Very High: potentiating or additive activity to IC20 and CI < 0.6 to IC50)	(4) (Weak: 0.8 < CI < 1 to IC50)	(3) (Moderate: 0.5 < CI < 0.8 at IC50)	(1) (Very High: CI equal or below 1 at IC20 and Cl below 0.6 to IC50)	(5) (Additive effect: CI = 1)	(2) (High: CI < 0.5 to IC50)	(5) (Additive effect: CI = 1)		
CC/C(=C(\c1ccccc1)c1ccc(OCCN(C)C)cc1)c1ccccc1 [Tamoxifen, tamoxifen citrate]	(2) (High: CI < 0.5 to IC50)	(1) (Very High: potentiating or additive activity to IC20 and CI < 0.6 to IC50)	(3) (Moderate: 0.5 < CI < 0.8 to IC50)	(2) (High: CI < 0.5 to IC50)	(1) (Very High: potentiating or additive activity to IC20 and CI < 0.6 to IC50)	(5) (Additive effect: CI = 1)	(6) (Antagonist effect: CI > 1)	(3) (Moderate: 0.5 < CI < 0.8 at IC50)	(2) (High: CI < 0.5 to IC50)	(2) (High: CI below 0.5 at IC50)		
COc1cc2ncnc(Nc3cccc(Cl)c3)c2cc1OC [Tyrphostin, Tyrphostin AG 1478]	(2) (High: CI < 0.5 to IC50)	(1) (Very High: potentiating or additive activity to IC20 and CI < 0.6 to IC50)	(1) (Very High: potentiating or additive activity to IC20 and CI < 0.6 to IC50)	(3) (Moderate: 0.5 < CI < 0.8 to IC50)	(1) (Very High: potentiating or additive activity to IC20 and CI < 0.6 to IC50)	(4) (Weak: 0.8 < CI < 1 at IC50)	(1) (Very High: CI equal or below 1 at IC20 and Cl below 0.6 to IC50)	(3) (Moderate: 0.5 < CI < 0.8 at IC50)	(2) (High: CI < 0.5 to IC50)	(1) (Very High: CI equal or below 1 at IC20 and Cl below 0.6 to IC50)		
C=C1CC/C=C(/C)CC[C@@H]2[C@@H]1CC2(C)C [isocaryophyllene]											16	30
C/C1=C\CC/C(C)=C/CC(C)(C)/C=C/C1 [∝-humulene, α-humulene]											15	25
vinblastine sulfate salt	(3) (Moderate: 0.5 < CI < 0.8 to IC50)	(1) (Very High: potentiating or additive activity to IC20 and CI < 0.6 to IC50)	(1) (Very High: potentiating or additive activity to IC20 and CI < 0.6 to IC50)	(1) (Very High: potentiating or additive activity to IC20 and CI < 0.6 to IC50)	(1) (Very High: potentiating or additive activity to IC20 and CI < 0.6 to IC50)	(1) (Very High: CI equal or below 1 at IC20 and Cl below 0.6 to IC50)	(1) (Very High: CI equal or below 1 at IC20 and Cl below 0.6 to IC50)	(1) (Very High: CI equal or below 1 at IC20 and Cl below 0.6 to IC50)	(1) (Very High: potentiating or additive activity to IC20 and CI < 0.6 to IC50)	(1) (Very High: CI equal or below 1 at IC20 and Cl below 0.6 to IC50)		
vincristine sulfate salt	(1) (Very High: potentiating or additive activity to IC20 and CI < 0.6 to IC50)	(1) (Very High: potentiating or additive activity to IC20 and CI < 0.6 to IC50)	(1) (Very High: potentiating or additive activity to IC20 and CI < 0.6 to IC50)	(1) (Very High: potentiating or additive activity to IC20 and CI < 0.6 to IC50)	(1) (Very High: potentiating or additive activity to IC20 and CI < 0.6 to IC50)	(3) (Moderate: 0.5 < CI < 0.8 at IC50)	(1) (Very High: CI equal or below 1 at IC20 and Cl below 0.6 to IC50)	(2) (High: CI below 0.5 at IC50)	(1) (Very High: potentiating or additive activity to IC20 and CI < 0.6 to IC50)	(1) (Very High: CI equal or below 1 at IC20 and Cl below 0.6 to IC50)		

— patent publication US20110008465A1, “SESQUITERPENE FORMULATIONS, KITS AND METHODS OF USE THEREOF” (priority 2007, published 2011)
